According to US20190127456A1, “METHODS OF TREATING IDIOPATHIC PULMONARY FIBROSIS” (FibroGen, Inc., priority 2017, published 2019):
Where two headings read alike, the source gives them in different places.

Tests used:
[1] = tested on: radiation-induced lung fibrosis; assay: Mouse radiation-induced lung fibrosis model: lung volume by HRCT; format: in vivo; details: 14.5 Gy irradiated mice, treated 8 weeks from week 16, measured at 24 weeks; FIG. 4
Protocol: The objective of this study was to compare the activity of pamrevlumab monotherapy to either pirfenidone or nintedanib alone, and to evaluate the potential for enhanced activity of the combined agents. […] In this study, mice received thoracic irradiation (RT), followed by the therapeutic administration of the agents at 16 weeks post-irradiation when lung remodeling was evident by HRCT. After 8 weeks of drug treatment, lung density and volume were assessed by HRCT, lung function was assessed by blood gas analysis, and mice were sacrificed for histologic and gene expression analysis. C57B1/6 mice were irradiated with 14.5 Gy photons; full thorax, single dose. Treatment with therapeutic agent(s) (pamrevlumab, pirfenidone, and/or nintedanib) was initiated 16 weeks post-irradiation and continued for 8 weeks. Pamrevlumab (FG) was given IP, BIW, at 40 mg/kg; pirfenidone (PF) was given PO in chow, QD, at 300 mg/kg; nintedanib (ND) was given PO in chow, QD, at 100 mg/kg. Treatment with each agent alone, with combinations of two, and with a triple combination were carried out. Controls included non-irradiated mice, mice that were irradiated and not treated, and mice that were irradiated and given human IgG. Endpoint measurements were taken at 24 weeks for HRCT (lung structure), blood gas analysis (lung function), histology and gene expression analysis. […]

[2] = tested on: radiation-induced lung fibrosis; assay: Mouse radiation-induced lung fibrosis model: lung function by blood gas analysis; format: in vivo; details: blood gas analysis at 24 weeks, compared to RT with no treatment; data not shown
Protocol: The objective of this study was to compare the activity of pamrevlumab monotherapy to either pirfenidone or nintedanib alone, and to evaluate the potential for enhanced activity of the combined agents. […] In this study, mice received thoracic irradiation (RT), followed by the therapeutic administration of the agents at 16 weeks post-irradiation when lung remodeling was evident by HRCT. After 8 weeks of drug treatment, lung density and volume were assessed by HRCT, lung function was assessed by blood gas analysis, and mice were sacrificed for histologic and gene expression analysis. C57B1/6 mice were irradiated with 14.5 Gy photons; full thorax, single dose. Treatment with therapeutic agent(s) (pamrevlumab, pirfenidone, and/or nintedanib) was initiated 16 weeks post-irradiation and continued for 8 weeks. Pamrevlumab (FG) was given IP, BIW, at 40 mg/kg; pirfenidone (PF) was given PO in chow, QD, at 300 mg/kg; nintedanib (ND) was given PO in chow, QD, at 100 mg/kg. Treatment with each agent alone, with combinations of two, and with a triple combination were carried out. Controls included non-irradiated mice, mice that were irradiated and not treated, and mice that were irradiated and given human IgG. […] The effect of the treatments on lung function was assessed by blood gas analysis (data not shown).

[3] = tested on: fibrosis genes in irradiated lung; assay: Microarray analysis of mRNA transcripts in irradiated lung; format: in vivo, mouse; details: for % Normalization of gene expression, Igfbp5 / % Normalization of gene expression, Abca3 / % Normalization of gene expression, Gdf2 / % Normalization of gene expression, Cx3cl1 / % Normalization of gene expression, Retnla / % Normalization of gene expression, Nt5e / % Normalization of gene expression, Plat / % Normalization of gene expression, Ccr2 / % Normalization of gene expression, Igfbp7 / % Normalization of gene expression, Cdkn2a / % Normalization of gene expression, Apln / % Normalization of gene expression, Wisp1: irradiated mouse lung, 24 weeks after RT, 8 weeks treatment; for % Normalization of gene expression, Igfbp5: RT fold change 0.3; for % Normalization of gene expression, Abca3 / % Normalization of gene expression, Gdf2: RT fold change 0.4; for % Normalization of gene expression, Cx3cl1: RT fold change 0.5; for % Normalization of gene expression, Retnla: RT fold change 2.0; for % Normalization of gene expression, Nt5e: RT fold change 2.1; for % Normalization of gene expression, Plat: RT fold change 2.2; for % Normalization of gene expression, Ccr2: RT fold change 2.4; for % Normalization of gene expression, Igfbp7: RT fold change 2.6; for % Normalization of gene expression, Cdkn2a: RT fold change 2.7; for % Normalization of gene expression, Apln: RT fold change 5.3; for expression of the Wisp 1 and Nt5e genes: monotherapy compared to RT treatment alone
Protocol: C57B1/6 mice were irradiated with 14.5 Gy photons; full thorax, single dose. Treatment with therapeutic agent(s) (pamrevlumab, pirfenidone, and/or nintedanib) was initiated 16 weeks post-irradiation and continued for 8 weeks. Pamrevlumab (FG) was given IP, BIW, at 40 mg/kg; pirfenidone (PF) was given PO in chow, QD, at 300 mg/kg; nintedanib (ND) was given PO in chow, QD, at 100 mg/kg. Treatment with each agent alone, with combinations of two, and with a triple combination were carried out. Controls included non-irradiated mice, mice that were irradiated and not treated, and mice that were irradiated and given human IgG. Endpoint measurements were taken at 24 weeks for HRCT (lung structure), blood gas analysis (lung function), histology and gene expression analysis.
Microarray analysis of mRNA transcripts of numerous genes at 24 weeks after RT were carried out by standard techniques to compare the expression profiles of irradiated and treated animals to irradiated animals that were not further treated. The results of the later group, RT (control), were used to normalize the expression data from the other groups. Briefly, RNA from 4-7 animals per condition (RT (control), RT+hIgG, RT+FG, RT+ND, RT+PF, RT+FG+ND, RT+FG+PF, RT+ND+PF, RT+FG+ND+PF). Affymetrix 430 2.0 data was used. RT induced changes (≥1.5×, p<0.05) were filtered for treatment dependent correction (>50% correction, p<0.05). 80 RT-induced and 68 RT-suppressed transcripts were normalized at least 50% by one or more treatments. The resulting list was dominated by pamrevlumab-dependent normalization. Functional analysis indicated pamrevlumab treatment preferentially normalized RT genes known to be regulated by TGFβ and TNF.

[4] = cited from earlier work
[5] = IPF patients; cited from earlier work
[6] = combined clinical studies of pirfenidone, cited from earlier work
IPF = details: Week 52, Phase 3 clinical study; cited from earlier work

Row | Structure (SMILES) | % Normalization of gene expression, Igfbp5 [3] | % Normalization of gene expression, Abca3 [3] | % Normalization of gene expression, Gdf2 [3] | % Normalization of gene expression, Cx3cl1 [3] | % Normalization of gene expression, Retnla [3] | % Normalization of gene expression, Nt5e [3] | % Normalization of gene expression, Plat [3] | % Normalization of gene expression, Ccr2 [3] | % Normalization of gene expression, Igfbp7 [3] | % Normalization of gene expression, Cdkn2a [3] | % Normalization of gene expression, Apln [3] | % Normalization of gene expression, Wisp1 ([3]; RT fold change 6.9) | % Normalization of gene expression, Wisp1 ([3]; RT fold change 11.9) | expression of the Wisp 1 and Nt5e genes [3] | other results
1 | COC(=O)c1ccc2c(c1)NC(=O)/C2=C(\Nc1ccc(N(C)C(=O)CN2CCN(C)CC2)cc1)c1ccccc1 [nintedanib] | 54% | −35% | 33% | −21% | −9% | −22% | −55% | 10% | 10% | 9% | 6% | −7% | −18% | further induction of expression | radiation-induced lung volume decrease [1]: not statistically different; O2 saturation [2]: normalized O2 saturation; patients with arterial thromboembolic events ([4]; a clinical trial of nintedanib): 2.5%; patients experiencing abdominal pain ([4]; clinical trials of nintedanib): 15%; patients experiencing vomiting ([4]; clinical trials of nintedanib): 12%; patients experiencing nausea ([4]; clinical trials of nintedanib, placebo 7%): 24%; patients experiencing diarrhea ([4]; clinical trials of nintedanib, placebo 18%): 62%; plasma half-life [5]: 9.5 h
2 | Cc1ccc(=O)n(-c2ccccc2)c1 [pirfenidone, 5-methyl-1-phenyl-2-(1H)-pyridone] | 27% | −20% | 10% | −8% | −7% | −58% | 0% | −20% | −6% | −37% | 41% | −21% | −78% | further induction of expression | patients experiencing abdominal pain [6]: 24%; patients experiencing vomiting [6]: 13%; patients with skin rash [6]: 30%; patients experiencing nausea ([6]; placebo 16%): 36%; patients experiencing diarrhea ([6]; placebo 20%): 26%; mean UCSD-SOBQ score over placebo treated patients (IPF): no statistical significance
